Data on 10 compounds can be found in PubChem BioAssay (NCI).

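Method: 48-hour compound exposure of cells in 96-well plates, five concentrations, linear interpolation of endpoints. Here, GI50 denotes the concentration required for 50% inhibition of growth. TGI is the concentration that stops growth completely.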 Bounds are passed on as bounds.

Test systems include NCI/ADR-RES ovarian; UO-31 renal; SR leukemia; T-47D breast; HCC-2998 colon; SW-620 colon; NCI-H23 lung; HS 578T breast; SK-OV-3 ovarian; SF-268 CNS.
Common to all, as to test: NCI anticancer screen, dose series, 48 h

In the case of `CC(=O)OCC1OC(n2cc(F)c(=O)[nH]c2=O)C(OC(C)=O)C1OC(C)=O` (centres undefined), the TGI with NCI/ADR-RES ovarian is more than 100 µM; in the assay on UO-31 renal, more than 96.1 µM; in the assay on SR leukemia it was more than 78.5 µM; with T-47D breast it was more than 100 µM; with HCC-2998 colon, more than 100 µM; in the assay on SW-620 colon, more than 100 µM. In addition, the TGI in the assay on NCI-H23 lung, in the assay on HS 578T breast, in the assay with SK-OV-3 ovarian and in the assay with SF-268 CNS was more than 100 µM throughout.

Turning to `COc1ccc(C(=O)CC2(O)C(=O)Nc3c(Cl)ccc(Cl)c32)cc1` (centres undefined), the GI50 with NCI/ADR-RES ovarian is 0.715 µM; in the assay on UO-31 renal, 6.65 µM; in the assay on SR leukemia, 0.413 µM; in the assay on T-47D breast, 9.9 µM; in the assay with HCC-2998 colon, 5.24 µM; in the assay with SW-620 colon it was 0.503 µM. The GI50 in the assay with NCI-H23 lung is 4.61 µM; in the assay on HS 578T breast, 1.66 µM; with SK-OV-3 ovarian, 2.89 µM; in the assay on SF-268 CNS, 5.95 µM. Further, the TGI in the assay with NCI/ADR-RES ovarian is 19.6 µM; with UO-31 renal, more than 100 µM; in the assay on SR leukemia, 56.1 µM; with T-47D breast, more than 100 µM; in the assay on HCC-2998 colon it was more than 54 µM; in the assay on SW-620 colon, more than 100 µM. The TGI in the assay on NCI-H23 lung is more than 60.6 µM; with HS 578T breast, more than 24.6 µM; with SK-OV-3 ovarian, more than 100 µM; in the assay with SF-268 CNS, more than 61.1 µM.

Regarding `COc1c(O)c2ccccc2c2cc(O)ccc12`, the TGI with NCI/ADR-RES ovarian is 29.5 µM; with UO-31 renal, 11.4 µM; with SR leukemia, more than 68.4 µM; with T-47D breast, 38.4 µM; with HCC-2998 colon it was 32.7 µM; with SW-620 colon, 6.69 µM. Moreover, the TGI in the assay with NCI-H23 lung was 10.6 µM; in the assay with HS 578T breast it was more than 58.9 µM; with SK-OV-3 ovarian, 55 µM; in the assay on SF-268 CNS, 28.8 µM.

As to `Nc1nc2nc3c(nc2c(=O)[nH]1)CN(c1ccc(C(=O)O)cc1)C3=O`, the TGI in the assay with NCI/ADR-RES ovarian, in the assay on UO-31 renal, in the assay on SR leukemia, in the assay with T-47D breast, in the assay with HCC-2998 colon and with SW-620 colon was more than 100 µM in each case. The TGI in the assay on NCI-H23 lung, in the assay with HS 578T breast, in the assay with SK-OV-3 ovarian and in the assay with SF-268 CNS was more than 100 µM each time.

In the case of `CC(=O)O[C@@H]1C=CC(=O)C2(CC(=O)O[C@@H]2/C=C(\C)CCC=C(C)C)C1` (some centres undefined), the GI50 is 0.223 µM with NCI/ADR-RES ovarian; 1.58 µM in the assay with UO-31 renal; 0.0339 µM with SR leukemia; 0.389 µM with T-47D breast; 0.601 µM in the assay on HCC-2998 colon; 0.436 µM in the assay on SW-620 colon. For the same compound, the GI50 in the assay with NCI-H23 lung is 0.365 µM; with HS 578T breast, 2.54 µM; in the assay with SK-OV-3 ovarian it was 2 µM; in the assay on SF-268 CNS, 1.05 µM. The TGI with NCI/ADR-RES ovarian turned out to be 0.827 µM; with UO-31 renal, 3.59 µM; in the assay with SR leukemia it was 31.6 µM; with T-47D breast, 0.873 µM; in the assay with HCC-2998 colon, 1.99 µM; with NCI-H23 lung it was 1.33 µM. Besides, the figures for the TGI in the assay on HS 578T breast, with SK-OV-3 ovarian and in the assay on SF-268 CNS were more than 23.4 µM, 4.49 µM and 2.31 µM, respectively.

Take `CC[C@]1(O)C[C@@H]2CN(Cc3c([nH]c4ccccc34)[C@@](C(=O)OC)(c3cc4c(cc3OC)N(C)[C@H]3[C@@](O)(C(=O)OC)[C@H](OC(C)=O)[C@]5(CC)[C@@H]6C[C@@H]6CN6CC[C@]43[C@@H]65)C2)C1`: the GI50 with NCI/ADR-RES ovarian is more than 4.38 µM; in the assay with UO-31 renal, more than 3.59 µM; in the assay on SR leukemia, 0.0174 µM; in the assay on T-47D breast, 0.0562 µM; in the assay with HCC-2998 colon, 0.116 µM; in the assay on SW-620 colon, 0.0701 µM. For the same compound, the GI50 is 0.195 µM with NCI-H23 lung, 0.0858 µM in the assay with HS 578T breast, 0.0841 µM in the assay with SK-OV-3 ovarian and 0.148 µM in the assay on SF-268 CNS. The TGI with NCI/ADR-RES ovarian, in the assay on UO-31 renal, in the assay on SR leukemia, in the assay with T-47D breast, with HCC-2998 colon and in the assay on SW-620 colon was more than 4.38 µM throughout. For the same compound, the TGI with NCI-H23 lung was more than 4.38 µM; in the assay on HS 578T breast it was more than 1.33 µM; in the assay with SK-OV-3 ovarian it was more than 4.38 µM; in the assay with SF-268 CNS it was more than 4.38 µM.

As for `[O-][n+]1onc2c3nn(-c4ccccc4)nc3ccc21`, the TGI in the assay on NCI/ADR-RES ovarian is more than 100 µM; in the assay with UO-31 renal, more than 100 µM; in the assay with SR leukemia, more than 75.1 µM; in the assay with T-47D breast, 32.4 µM; in the assay on HCC-2998 colon, 44.9 µM; in the assay on SW-620 colon, more than 100 µM. Besides, the TGI is more than 100 µM in the assay on NCI-H23 lung, more than 88.6 µM in the assay with HS 578T breast, more than 100 µM in the assay with SK-OV-3 ovarian and more than 100 µM with SF-268 CNS.

As for `C1=C[C@@H]2c3ccc4cnccc4c3NC[C@@H]2C1`, the TGI in the assay with NCI/ADR-RES ovarian, in the assay with UO-31 renal, with SR leukemia, in the assay on T-47D breast, with HCC-2998 colon and in the assay with SW-620 colon was more than 100 µM in each case. Moreover, the TGI in the assay on NCI-H23 lung, in the assay on HS 578T breast, in the assay with SK-OV-3 ovarian and in the assay with SF-268 CNS was more than 100 µM throughout.

`COc1ccc(/C=C2/SC(=Nc3c(C)nn(-c4ccccc4)c3N)NC2=O)cc1`: the GI50 is 4.36 µM in the assay on NCI/ADR-RES ovarian; 2.83 µM in the assay on UO-31 renal; 3.63 µM in the assay with SR leukemia; 3.96 µM in the assay with T-47D breast; 6.87 µM in the assay with HCC-2998 colon; 3.31 µM in the assay with SW-620 colon. Moreover, the GI50 is 5.69 µM in the assay on NCI-H23 lung, 2.17 µM in the assay with HS 578T breast, 3.65 µM with SK-OV-3 ovarian and 4.84 µM with SF-268 CNS. Further, the TGI in the assay with NCI/ADR-RES ovarian amounted to 39.4 µM; in the assay on UO-31 renal, 19 µM; in the assay with SR leukemia it was 18 µM; with T-47D breast, 45.3 µM; in the assay on HCC-2998 colon it was 20.6 µM; in the assay on SW-620 colon, 13.9 µM. Besides, the TGI in the assay on NCI-H23 lung turned out to be 59.5 µM; in the assay on HS 578T breast, 6.57 µM; in the assay with SK-OV-3 ovarian it was 25.3 µM; in the assay on SF-268 CNS, 35.7 µM.

Take `O=c1c(Cl)nsnc1Cl`: the TGI was more than 100 µM in the assay on NCI/ADR-RES ovarian; 74.5 µM in the assay on UO-31 renal; 4.43 µM with SR leukemia; more than 31.6 µM with T-47D breast; 35.2 µM in the assay on HCC-2998 colon; 31.5 µM in the assay on SW-620 colon. The TGI in the assay on NCI-H23 lung worked out at 50.5 µM; in the assay with HS 578T breast, 78.9 µM; in the assay with SK-OV-3 ovarian it was 35 µM; with SF-268 CNS, 71.3 µM.
